Test system: 521955-158-R2-J5-PDC complex spheroids, viability
Test: Anticancer human tumor 521955-158-R2-J5-PDC patient-derived pancreatic carcinoma cell line growth inhibition [RAS]
Conditions: for viability, T/C: stronger effect = lower value
Procedure, shortened: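 Multi-cell-type spheroids: tumor cells plus HUVEC endothelial cells and mesenchymal stem cells. RAS-pathway inhibitors were combined with targeted agents, each dosed in half-log steps down from clinical Cmax, or from 10 microM when Cmax was unknown.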

[1] = curve of first compound, second compound 0.0316 µM
[2] = curve of first compound, second compound 0.1 µM
[3] = curve of first compound, second compound 0.316 µM
[4] = curve of first compound, second compound 1 µM
[5] = curve of first compound, second compound 3.16 µM
[6] = curve of first compound, second compound 10 µM
[7] = second compound 0.0316 µM, first compound 0.0316 µM
[8] = second compound 0.0316 µM, first compound 0.1 µM
[9] = second compound 0.0316 µM, first compound 0.316 µM
[10] = second compound 0.0316 µM, first compound 1 µM
[11] = second compound 0.1 µM, first compound 0.0316 µM
[12] = second compound 0.1 µM, first compound 0.1 µM
[13] = second compound 0.1 µM, first compound 0.316 µM
[14] = second compound 0.1 µM, first compound 1 µM
[15] = second compound 0.316 µM, first compound 0.0316 µM
[16] = second compound 0.316 µM, first compound 0.1 µM
[17] = second compound 0.316 µM, first compound 0.316 µM
[18] = second compound 0.316 µM, first compound 1 µM
[19] = second compound 1 µM, first compound 0.0316 µM
[20] = second compound 1 µM, first compound 0.1 µM
[21] = second compound 1 µM, first compound 0.316 µM
[22] = second compound 1 µM, first compound 1 µM
[23] = second compound 3.16 µM, first compound 0.0316 µM
[24] = second compound 3.16 µM, first compound 0.1 µM
[25] = second compound 3.16 µM, first compound 0.316 µM
[26] = second compound 3.16 µM, first compound 1 µM
[27] = second compound 10 µM, first compound 0.0316 µM
[28] = second compound 10 µM, first compound 0.1 µM
[29] = second compound 10 µM, first compound 0.316 µM
[30] = second compound 10 µM, first compound 1 µM
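Also: compound exposure lasted seven days before the viability read.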
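For viability, T/C in this document: spheroids also contain HUVEC endothelial cells and mesenchymal stem cells as stroma.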

With `C=CC(=O)Nc1cc(Nc2nccc(-c3cn(C)c4ccccc34)n2)c(OC)cc1N(C)CCN(C)C` + C#Cc1c(F)ccc2cc(O)cc(-c3ncc4c(N5CC6CCC(C5)N6)nc(OCC56CCCN5CC(F)C6)nc4c3F)c12 the IC50 [1] was 39.2 nM, the IC50 [2] was 217 nM and the IC50 [3] was 47.1 nM. The IC50 [4] was less than 3.16 nM, the IC50 [5] was less than 3.16 nM and the IC50 [6] was less than 3.16 nM. For the same compound, the viability, T/C (second compound 0.0316 µM, first compound 0.00316 µM) was 65.3%, the viability, T/C (second compound 0.0316 µM, first compound 0.01 µM) was 56% and the viability, T/C [7] was 52.8%. It also gave a viability, T/C [8] of 43.5%, a viability, T/C [9] of 38.3% and a viability, T/C [10] of 29.6%. It also gave a viability, T/C (second compound 0.1 µM, first compound 0.00316 µM) of 46%, a viability, T/C (second compound 0.1 µM, first compound 0.01 µM) of 59.9% and a viability, T/C [11] of 49.7%. The viability, T/C [12] was 59.8%, the viability, T/C [13] was 46.7% and the viability, T/C [14] was 22.9%. The viability, T/C (second compound 0.316 µM, first compound 0.00316 µM) was 51%, the viability, T/C (second compound 0.316 µM, first compound 0.01 µM) was 58.8% and the viability, T/C [15] was 47.1%. The viability, T/C [16] was 48.6%, the viability, T/C [17] was 34.5% and the viability, T/C [18] was 22.6%. The viability, T/C (second compound 1 µM, first compound 0.00316 µM) was 46.8%, the viability, T/C (second compound 1 µM, first compound 0.01 µM) was 48.3% and the viability, T/C [19] was 51.1%. For the same compound, the viability, T/C [20] was 43.4%, the viability, T/C [21] was 34.4% and the viability, T/C [22] was 17.8%. It also gave a viability, T/C (second compound 3.16 µM, first compound 0.00316 µM) of 43%, a viability, T/C (second compound 3.16 µM, first compound 0.01 µM) of 53.4% and a viability, T/C [23] of 42.5%. For the same compound, the viability, T/C [24] was 49.9%, the viability, T/C [25] was 27.8% and the viability, T/C [26] was 15%. The viability, T/C (second compound 10 µM, first compound 0.00316 µM) was 32.5%, the viability, T/C (second compound 10 µM, first compound 0.01 µM) was 43.9% and the viability, T/C [27] was 32.2%. For the same compound, the viability, T/C [28] was 34.2%, the viability, T/C [29] was 26.1% and the viability, T/C [30] was 3.73%.
`Cc1nc(N2CCC3(CC2)COC(C)C3N)c(CO)nc1Sc1ccnc(N)c1Cl` (stereo unspecified) + C#Cc1c(F)ccc2cc(O)cc(-c3ncc4c(N5CC6CCC(C5)N6)nc(OCC56CCCN5CC(F)C6)nc4c3F)c12 gave an IC50 [1] of 598 nM, an IC50 [2] of 177 nM and an IC50 [3] of 115 nM. It also gave an IC50 [4] of less than 31.6 nM, an IC50 [5] of less than 31.6 nM and an IC50 [6] of less than 31.6 nM. For the same compound, the viability, T/C [7] was 50.1%, the viability, T/C [8] was 63.7% and the viability, T/C [9] was 60.6%. For the same compound, the viability, T/C [10] was 43.5%, the viability, T/C (second compound 0.0316 µM, first compound 3.16 µM) was 42.3% and the viability, T/C (second compound 0.0316 µM, first compound 10 µM) was 37.4%. The viability, T/C [11] was 61.1%, the viability, T/C [12] was 58.3% and the viability, T/C [13] was 41.9%. It also gave a viability, T/C [14] of 37.6%, a viability, T/C (second compound 0.1 µM, first compound 3.16 µM) of 39.7% and a viability, T/C (second compound 0.1 µM, first compound 10 µM) of 28.2%. It also gave a viability, T/C [15] of 63.1%, a viability, T/C [16] of 46.2% and a viability, T/C [17] of 44.1%. It also gave a viability, T/C [18] of 37.7%, a viability, T/C (second compound 0.316 µM, first compound 3.16 µM) of 27.2% and a viability, T/C (second compound 0.316 µM, first compound 10 µM) of 24%. It also gave a viability, T/C [19] of 45.3%, a viability, T/C [20] of 42.9% and a viability, T/C [21] of 39.3%. The viability, T/C [22] was 30.7%, the viability, T/C (second compound 1 µM, first compound 3.16 µM) was 33.2% and the viability, T/C (second compound 1 µM, first compound 10 µM) was 22.9%. The viability, T/C [23] was 37.1%, the viability, T/C [24] was 39.7% and the viability, T/C [25] was 34.4%. It also gave a viability, T/C [26] of 28.3%, a viability, T/C (second compound 3.16 µM, first compound 3.16 µM) of 19% and a viability, T/C (second compound 3.16 µM, first compound 10 µM) of 20.1%. It also gave a viability, T/C [27] of 48.7%, a viability, T/C [28] of 28.2% and a viability, T/C [29] of 21.3%. It also gave a viability, T/C [30] of 18.5%, a viability, T/C (second compound 10 µM, first compound 3.16 µM) of 13.7% and a viability, T/C (second compound 10 µM, first compound 10 µM) of 5%.
`CC(C)NCC(C(=O)N1CCN(c2ncnc3c2C(C)CC3O)CC1)c1ccc(Cl)cc1` (stereo unspecified) was tested, and the viability, T/C (compound 0.0316 µM) was 97.9% [middle of 4 runs], the viability, T/C (compound 0.1 µM) was 99.3% [middle of 4 runs] and the viability, T/C (compound 0.316 µM) was 96% [middle of 4 runs]. The viability, T/C (compound 1 µM) was 60.5% [middle of 4 runs], the viability, T/C (compound 3.16 µM) was 75.7% [middle of 4 runs] and the viability, T/C (compound 10 µM) was 72.5% [middle of 4 runs]. The IC50 (curve of compound) was greater than 10000 nM.

Source: PubChem BioAssay AID2060900 (Molecular Pharmacology Branch, DTP, NCI, 2025)
